# According to patent US7479484B2, “Peptides and peptidomimetics having immune-modulating, anti-inflammatory, and anti-viral activity” (priority 2003, dated 2009):
# Values joined by “and” are separate entries in the source; they are usually repeats but may differ in a detail not shown here. Identical values can stand only once. Counter-ions that a name gives are not always drawn. Like-named read-outs stand apart in the source and are kept apart here. Marks after values point to notes of the source that are not given here. Where a SMILES comes first, the peptide text is derived from it. [ ]: non-standard residue; d: D form. dPhe(F5) = N[C@H](Cc1c(F)c(F)c(F)c(F)c1F)C(=O)O; dBpa = N[C@H](Cc1ccc(C(=O)c2ccccc2)cc1)C(=O)O; dCha = N[C@H](CC1CCCCC1)C(=O)O
# How the values were obtained:
# [1] = test system: passive cutaneous anaphylaxis (PCA); assay: Passive cutaneous anaphylaxis (PCA) in rats; format: in vivo, Wistar rats; conditions: rat, IP; for % Inhibition: relative to vehicle control group; for Total PCA Response: sum of scores of 3 animals; for PCA Response 1st Spot / PCA Response 2nd Spot: weal score per animal (N 1-3)
# Method: CBP501 (SEQ ID NO: 80) was evaluated for anti-allergic activity in a model of passive cutaneous anaphylaxis (PCA) in Wistar rats. CBP501, at doses of 20, 10, and 5 mg/kg, was administered intraperitoneally (IP) 30 minutes before challenge with a mixture of ovalbumin and Evans Blue dye.
# CBP501 was dissolved in 0.9% NaCl. CBP501, at 20, 10 and 5 mg/kg, was administered intraperitoneally (IP) 30 min before challenge with a mixture of ovalbumin and Evans Blue dye.
# Animals: Male or female Wistar rats were provided by the animal breeding center of MDS Pharma Services-Taiwan Ltd. Space allocation for 6 animals was 45×23×21 cm. All animals were maintained in a hygienic environment in a controlled temperature (21.5-22.5° C.) and humidity (50%-70%) environment, with 12 hour light-dark cycles for at least one week, housed in the MDS Pharma Services-Taiwan Laboratory, prior to being used. All aspects of this work including housing, experimentation and disposal of animals were performed in general accordance with the International Guiding Principles for Biomedical Research Involving Animals (CIOMS Publication No. ISBN 92 90360194, 1985).
# Chemicals: Cyproheptadine-HCl (RBI-USA), ethanol absolute (Merck, Germany), distilled water (in-house), Evans Blue (Fluka, Switzerland), and ovalbumin (Sigma-Aldrich, USA) were used.
# Method of administration: Five groups of three (3) Wistar-derived male rats weighing 80+/−10 g were passively sensitized 16 hours earlier by intradermal injection of reaginic (IgE) antiovalbumin serum (0.05 ml) on two spots of the dorsal surface. […] Within 30 minutes after administration of CBP501, the animals were challenged intravenously (IV) with a mixture of ovalbumin (1 mg) and Evans Blue dye (5 mg). Animals were sacrificed 30 minutes after challenge.
# Results: Two measured weal diameters were averaged for each animal and scored 0 if <0.05 cm, 1 if 0.05-0.2 cm, 2 if 0.2-0.4 cm, 3 if 0.4-0.6 cm, 4 if 0.6-0.8 cm and 5 if >0.8 cm. Maximum possible score for each animal totals 2×5=10. Inhibition of the resulting PCA blue colored weal by 50 percent or more relative to the vehicle control group indicates possible antiallergic activity. Results are shown in Table 1, below, where significant changes are indicated by an asterisk(*).
# [2] = Cytotoxicity in monocyte/macrophages (tetrazolium dye reduction); format: cell-based, human; conditions: human, highest concentration tested 80 μg/ml, called an estimate, read-out: TC50 (concentration decreasing cell viability by 50%)
# Method: (§1) CBP501 was evaluated for antiviral activity in monocyte/macrophages using the HIV strain Ba-L. Monocyte/macrophages were derived from normal HIV-1-negative donors, and cultured under conditions which promote cell survival and HIV replication. Antiviral activity was measured by detecting the amount of extracellular HIV-1p24 protein in a sample, where a decrease in p24 levels indicated antiviral activity. Cytotoxity was measured by a tetrazolium dye reduction method. Antiviral activity was analyzed for a series of dilutions of a stock solution of 100 μg/ml CBP501. The experiments were performed using serial dilutions of the compound, generating a series of concentrations from 0.3125 to 80 μg/ml CBP501.
# monocyte/macrophages = assay: as above; format: cell-based, human
# Method: as §1
# HIV-1 strain Ba-L = assay: Inhibition of HIV-1 replication in human monocyte/macrophages (extracellular p24); format: cell-based; conditions: HIV-1 strain Ba-L in monocyte/macrophages
# Method: as §1
# 14-3-3 protein = conditions: as disclosed in U.S. application Ser. No. 10/347,145; cited from earlier work
# [3] = Cytotoxicity in PBMC (tetrazolium dye reduction); format: cell-based; conditions: human, peripheral blood mononuclear cells (PBMC), highest concentration tested 80 μg/ml, called an estimate, read-out: TC50 (concentration decreasing cell viability by 50%)
# Method: (§2) CBP501 was tested for antiviral activity against HIV-1 in peripheral blood mononuclear cells (PBMC) using the clinical pediatric HIV strain WeJo. PBMCs were derived from normal HIV-1-negative donors, and cultured under conditions which promote cell survival and HIV replication. Antiviral activity was measured by detecting the amount of extracellular HIV-1p24 protein in a sample, where a decrease in p24 levels indicated antiviral activity. Cytotoxity was measured by a tetrazolium dye reduction method. Antiviral activity was analyzed for a series of dilutions of a stock solution of 100 μg/ml CBP501. The experiments were performed using serial dilutions of the compound, generating a series of concentrations from 0.3125 to 80 μg/ml CBP501.
# [4] = test system: peripheral blood mononuclear cells (PBMC); assay: Cytotoxicity in PBMC (tetrazolium dye reduction); format: cell-based
# Method: as §2
# [5] = test system: adjuvant-induced arthritis; conditions: rat
# HIV-1 strain WeJo = assay: Inhibition of HIV-1 replication in PBMC (extracellular p24); format: cell-based; conditions: HIV-1 strain WeJo in PBMC
# Method: as §2
# [6] = test system: kinases involved in the cell cycle G2 checkpoint, including mitogen activated kinase p38; conditions: as disclosed in U.S. application Ser. No. 10/347,145; cited from earlier work
# [7] = highest concentration tested 80 μg/ml, called an estimate
# [8] = 5 mg/kg, 30 min before challenge
# [9] = 10 mg/kg, 30 min before challenge
# [10] = 20 mg/kg, 30 min before challenge
compound,measurement,setting,value
"CN1CCC(=C2c3ccccc3C=Cc3ccccc32)CC1 [Cyproheptadine, Cyproheptadine-HCl, reference compound]",% Inhibition,"[1]; 1 mg/kg, 1 mg/kg",87* %
same,% Inhibition,"[1]; 1 mg/kg, listed as cyproheptadine-HCl, 1 mg/kg",87%
same,Total PCA Response,[1]; 1 mg/kg,4
same,PCA Response 1st Spot,[1]; 1 mg/kg,0 (0 if <0.05 cm) and 1 (1 if 0.05-0.2 cm) (2×)
same,PCA Response 2nd Spot,[1]; 1 mg/kg,0 (0 if <0.05 cm) and 1 (1 if 0.05-0.2 cm) (2×)
"N=C(N)NCCC[C@@H](NC(=O)[C@@H](CCCNC(=N)N)NC(=O)[C@@H](CCC(N)=O)NC(=O)[C@@H](CCCNC(=N)N)NC(=O)[C@@H](CCCNC(=N)N)NC(=O)[C@@H](CCCNC(=N)N)NC(=O)[C@@H](CC1CCCCC1)NC(=O)[C@@H](Cc1c(F)c(F)c(F)c(F)c1F)NC(=O)[C@@H](CO)NC(=O)[C@@H](Cc1c[nH]c2ccccc12)NC(=O)[C@@H](CO)NC(=O)[C@H](N)Cc1ccc(C(=O)c2ccccc2)cc1)C(=O)O [CBP501, (d-Bpa)(d-Ser)(d-Trp)(d-Ser)(d-Phe-2,3,4,5,6-F)(d-Cha)(d-Arg)(d-Arg)(d-Arg)(d-Gln)(d-Arg)(d-Arg)] (H-[dBpa][dS][dW][dS][dPhe(F5)][dCha][dR][dR][dR][dQ][dR][dR]-OH)",CC50,[2],> 80 µg/mL
same,decrease of cell viability at the highest concentration tested,monocyte/macrophages; 80 μg/ml,about 25%
same,TC50 (concentration decreasing cell viability by 50%),monocyte/macrophages; [7],> 80 µg/mL
same,PCA Response 1st Spot,[1]; [8],0 (0 if <0.05 cm) and 1 (1 if 0.05-0.2 cm) (2×)
same,PCA Response 2nd Spot,[1]; [8],0 (0 if <0.05 cm) and 1 (1 if 0.05-0.2 cm) (2×)
same,% Inhibition,"[1]; 5 mg/kg, 5 mg/kg",87%
same,Total PCA Response,[1]; 5 mg/kg,4
same,PCA Response 1st Spot,[1]; [9],0 (0 if <0.05 cm) (2×) and 1 (1 if 0.05-0.2 cm)
same,PCA Response 2nd Spot,[1]; [9],0 (0 if <0.05 cm) (2×) and 1 (1 if 0.05-0.2 cm)
same,% Inhibition,"[1]; 10 mg/kg, 10 mg/kg",93%
same,Total PCA Response,[1]; 10 mg/kg,2
same,PCA Response 1st Spot,[1]; [10],0 (0 if <0.05 cm) (2×) and 1 (1 if 0.05-0.2 cm)
same,PCA Response 2nd Spot,[1]; [10],0 (0 if <0.05 cm) (2×) and 1 (1 if 0.05-0.2 cm)
same,% Inhibition,"[1]; 20 mg/kg, 20 mg/kg",93%
same,Total PCA Response,[1]; 20 mg/kg,2
same,TI (therapeutic index=TC50/IC50),HIV-1 strain Ba-L,> 12.3
same,IC50 (concentration that inhibited virus replication by 50%),HIV-1 strain Ba-L; p24,6.5 µg/mL
same,binding to 14-3-3 protein (in words),14-3-3 protein,binds
same,CC50,[3],> 80 µg/mL
same,cell viability at the highest concentration tested (in words),[4]; 80 μg/ml,hardly affected
same,TC50 (concentration decreasing cell viability by 50%),[4]; [7],> 80 µg/mL
same,activity in acute phase (in words),"[5]; IP, 2.5 mg/kg ×5 doses",moderate but non-significant activity
same,activity in late phase (in words),"[5]; IP, 2.5 mg/kg ×5 doses",no activity
same,anti-inflammatory activity in both acute and late phase (in words),"[5]; IP, 5 mg/kg once daily for 5 consecutive days",significant anti-inflammatory activity
same,anti-inflammatory activity in both acute and late phase (in words),"[5]; IP, 10 mg/kg single dose",significant anti-inflammatory activity
same,"% Inhibition relative to Vehicle treated control, Days (1-5)","[5]; in vivo, ip, 2.5 mg/kg",27%
same,"% Inhibition relative to Vehicle treated control, Days (14-18)","[5]; in vivo, ip, 2.5 mg/kg",−11%
same,"% Inhibition relative to Vehicle treated control, Days (1-5)","[5]; in vivo, ip, 5 mg/kg",51* %
same,"% Inhibition relative to Vehicle treated control, Days (14-18)","[5]; in vivo, ip, 5 mg/kg",34* %
same,"% Inhibition relative to Vehicle treated control, Days (1-5)","[5]; in vivo, ip, 10 mg/kg",61* %
same,"% Inhibition relative to Vehicle treated control, Days (14-18)","[5]; in vivo, ip, 10 mg/kg",31* %
same,TI (therapeutic index=TC50/IC50),HIV-1 strain WeJo,> 113
same,IC50 (concentration that inhibited virus replication by 50%),HIV-1 strain WeJo; p24,0.71 µg/mL
same,inhibition of phosphorylation activities of kinases involved in the cell cycle G2 checkpoint (in words),[6],inhibits the phosphorylation activities
"C[C@]12CCC(=O)C=C1CC[C@@H]1[C@@H]2[C@@H](O)C[C@@]2(C)[C@H]1CC[C@]2(O)C(=O)CO [Hydrocortisone, hydrocortisone, reference compound]",activity in the acute phase (in words),[5]; 30 mg/kg daily for 5 days,significant activity
same,activity in the late phase (in words),[5]; 30 mg/kg daily for 5 days,near-significant activity
same,"% Inhibition relative to Vehicle treated control, Days (14-18)","[5]; PO, 30 mg/kg per dose × 5 doses, left hind paw volume, late phase",29%
same,"% Inhibition relative to Vehicle treated control, Days (1-5)","[5]; PO, 30 mg/kg per dose × 5 doses, right hind paw volume, acute phase",42* %
